Measurements as given in ChEMBL document CHEMBL1134700, “Design, synthesis and characterisation of a peptide with oxaloacetate decarboxylase activity” (Bioorg Med Chem Lett, 2001).
“And” between values parts separate entries of the source, which are not always exact repeats. Equal values may be shown once.

Key:
[1] = Decarboxylation of oxaloacetate to produce pyruvate was measured bythe conversion of NADH to NAD+ in the lactate dehydrogenase mediated transformation of pyruvate to lactate; expressed as Catalytic efficiency as the ratio of (kcat/KM)
[2] = Catalytic efficiency is the ratio of (kcat/KM)
[3] = target: L-lactate dehydrogenase B chain (Sus scrofa) (UniProt P00336); test: (§1) Decarboxylation of oxaloacetate to produce pyruvate was measured bythe conversion of NADH to NAD+ in the lactate dehydrogenase mediated transformation of pyruvate to lactate at a uM
[4] = tested on: CC(C)C[C@H](NC(=O)[C@H](C)NC(=O)[C@H](CCCCN)NC(=O)[C@H](CC(C)C)NC(=O)[C@H](CC(C)C)NC(=O)[C@@H](CCCCN)NC(=O)[C@H](C)NC(=O)[C@@H](N)CC(C)C)C(=O)N[C@@H](C)C(=O)N[C@@H](CCCCN)C(=O)N[C@@H](CC(C)C)C(=O)N[C@@H](CC(C)C)C(=O)N[C@@H](CCCCN)C(=O)N[C@@H](CCCCN)C(N)=O; test: as §1
[5] = tested on: CC(=O)NCC(=O)N1CCC[C@H]1C(=O)N[C@@H](CO)C(=O)N[C@@H](CCC(N)=O)C(=O)N1CCC[C@H]1C(=O)N[C@H](C(=O)N[C@@H](Cc1ccc(O)cc1)C(=O)N1CCC[C@H]1C(=O)NCC(=O)N[C@@H](CC(=O)O)C(=O)N[C@@H](CC(=O)O)C(=O)N[C@@H](C)C(=O)N1CCC[C@H]1C(=O)N[C@H](C(=O)N[C@@H](CCC(=O)O)C(=O)N[C@@H](CC(=O)O)C(=O)N[C@@H](CC(C)C)C(=O)N[C@@H](CCCCN)C(=O)N[C@@H](CCCN=C(N)N)C(=O)N[C@@H](Cc1ccccc1)C(=O)N[C@@H](Cc1ccc(O)cc1)C(=O)N[C@@H](CCCCN)C(=O)N[C@@H](CC(N)=O)C(=O)N[C@@H](CC(C)C)C(=O)N[C@@H](CCCCN)C(=O)N[C@@H](CCC(N)=O)C(=O)N[C@@H](Cc1ccc(O)cc1)C(=O)N[C@@H](CC(C)C)C(=O)N[C@@H](CCCCN)C(=O)N[C@H](C(=O)N[C@H](C(N)=O)C(C)C)C(C)C)C(C)C)[C@@H](C)O; test: as §1
[6] = target: L-lactate dehydrogenase B chain (Sus scrofa) (UniProt P00336); test: Decarboxylation of oxaloacetate to produce pyruvate was measured by the conversion of NADH to NAD+ in the lactate dehydrogenase mediated transformation of pyruvate to lactate at a uM

L-lactate dehydrogenase B chain (Sus scrofa), sequence (P00336 whole entry): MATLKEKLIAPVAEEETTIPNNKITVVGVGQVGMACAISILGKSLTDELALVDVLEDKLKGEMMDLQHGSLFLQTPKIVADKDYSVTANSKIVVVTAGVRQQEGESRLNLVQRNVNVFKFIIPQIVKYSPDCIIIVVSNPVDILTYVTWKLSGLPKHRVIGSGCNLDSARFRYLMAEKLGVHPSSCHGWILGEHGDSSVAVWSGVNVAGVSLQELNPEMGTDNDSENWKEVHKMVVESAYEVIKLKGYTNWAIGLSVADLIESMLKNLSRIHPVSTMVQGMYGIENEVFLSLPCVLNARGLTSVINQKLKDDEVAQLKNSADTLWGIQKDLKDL
L-lactate dehydrogenase B chain (Sus scrofa), P00336, sequence (P00336 whole entry): as above

Compound | k cat/Km [1] [M⁻¹ s⁻¹] | k cat/Km [2] | k cat [3] [s⁻¹] | other results
NCC(N)=O | 0.011 | – | – | –
Ac-GPSQPTYPGDDAPVEDLKRFYKNLKQYLKVV-NH2 | – | 1.74 M⁻¹ s⁻¹ | 0.086 | –
L-lactate dehydrogenase B chain (Sus scrofa), P00336 | – | – | – | Km [4]: 48 mM; Km [5]: 49.4 mM
CC(C)C[C@H](NC(=O)[C@H](C)NC(=O)[C@H](CCCCN)NC(=O)[C@H](CC(C)C)NC(=O)[C@H](CC(C)C)NC(=O)[C@@H](CCCCN)NC(=O)[C@H](C)NC(=O)[C@@H](N)CC(C)C)C(=O)N[C@@H](C)C(=O)N[C@@H](CCCCN)C(=O)N[C@@H](CC(C)C)C(=O)N[C@@H](CC(C)C)C(=O)N[C@@H](CCCCN)C(=O)N[C@@H](CCCCN)C(N)=O | – | 0.153 M⁻¹ s⁻¹ and 0.071 M⁻¹ s⁻¹ | 0.0075 | k cat [6]: 0.015 s⁻¹
CCCCN | 0.0005 | – | – | –
